According to US20230295260A1, “GLP RECEPTOR AGONISTS” (HEPTARES THERAPEUTICS LIMITED, priority 2020, published 2023):
Non-standard residues stand in square brackets, D forms with d. Residues, ends and D or L forms follow the SMILES beside them. ξ: configuration not given here. *: point of attachment. Malonyl(2,2-Me2,histaminyl) = CC(C)(C(=O)NCCc1cnc[nH]1)C(=O)*; Ala(1H-tetrazol-5-yl) = N[C@@H](Cc1nnn[nH]1)C(=O)O; ξαMeD = CC(N)(CC(=O)O)C(=O)O; Nle = CCCC[C@H](N)C(=O)O; Aib = CC(C)(N)C(=O)O; Alloc = C=CCOC(=O)*

Columns and labels:
[1] = molecular target: T1, mouse GLP1 receptor (Mus musculus, UniProt O35659); assay: cAMP accumulation assay (HTRF), functional agonism of mouse GLP1 receptor in HEK cells; assay type: cell-based; conditions: HEK cells transiently transfected, 45 min 37° C.; for Emax: HEK293, read-out: Mouse GLP-1 R agonist cAMP Emax; for EC50: read-out: Mouse GLP-1 R agonist cAMP pEC50 (converted)
T1 construct: expressed in transfected cells; host or cells: HEK cells, transient transfection with GeneJuice
T1 sequence (O35659 22-463): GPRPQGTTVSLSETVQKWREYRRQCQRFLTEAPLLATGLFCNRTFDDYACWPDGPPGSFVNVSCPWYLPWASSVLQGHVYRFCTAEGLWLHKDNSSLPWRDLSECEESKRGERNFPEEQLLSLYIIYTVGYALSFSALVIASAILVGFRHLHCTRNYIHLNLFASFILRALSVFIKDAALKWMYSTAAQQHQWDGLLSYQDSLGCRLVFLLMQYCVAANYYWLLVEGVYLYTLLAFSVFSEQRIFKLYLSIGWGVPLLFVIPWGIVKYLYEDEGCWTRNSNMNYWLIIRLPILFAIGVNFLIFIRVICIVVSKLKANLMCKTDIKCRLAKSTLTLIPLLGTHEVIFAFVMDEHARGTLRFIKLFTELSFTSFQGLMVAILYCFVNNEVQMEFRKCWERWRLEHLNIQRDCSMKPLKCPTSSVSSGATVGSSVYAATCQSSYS

[2] = molecular target: T2, human GLP2 receptor (Homo sapiens, UniProt O95838); assay: cAMP accumulation assay (HTRF), functional agonism of human GLP2 receptor in HEK cells; conditions: for Emax: HEK293, read-out: Human GLP-2R agonist cAMP Emax;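 for all read-outs here: HEK cells transduced via BacMam to express human GLP2 receptor, agonist-stimulated cAMP measured by HTRF after 45 min at 37 °C in HBSS with 0.5 mM IBMX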
T2 sequence (O95838 1-553): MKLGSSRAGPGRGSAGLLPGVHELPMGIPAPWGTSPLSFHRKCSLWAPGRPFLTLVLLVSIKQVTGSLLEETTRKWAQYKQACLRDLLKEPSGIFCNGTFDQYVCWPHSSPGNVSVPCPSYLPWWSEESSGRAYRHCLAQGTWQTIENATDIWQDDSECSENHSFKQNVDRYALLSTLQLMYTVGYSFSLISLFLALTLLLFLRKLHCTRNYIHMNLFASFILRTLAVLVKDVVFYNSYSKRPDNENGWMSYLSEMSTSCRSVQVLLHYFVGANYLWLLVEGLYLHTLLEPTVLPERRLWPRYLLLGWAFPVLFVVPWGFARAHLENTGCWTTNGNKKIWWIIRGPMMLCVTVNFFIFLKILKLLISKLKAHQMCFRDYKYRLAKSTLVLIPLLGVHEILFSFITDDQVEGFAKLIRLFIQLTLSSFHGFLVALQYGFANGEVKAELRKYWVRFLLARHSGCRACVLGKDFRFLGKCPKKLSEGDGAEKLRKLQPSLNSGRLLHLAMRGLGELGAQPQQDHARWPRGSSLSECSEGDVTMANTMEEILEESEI

[3] = molecular target: T3, human GLP1 receptor (Homo sapiens, UniProt P43220); assay: cAMP accumulation assay (HTRF), functional agonism of human GLP1 receptor in HEK cells; assay type: cell-based; conditions: HEK cells, human GLP1 receptor BacMam, 45 min 37° C.; for Emax: HEK293, read-out: Human GLP-1R agonist cAMP Emax; for EC50: read-out: Human GLP-1R agonist cAMP pEC50 (converted)
T3 construct: expressed in transfected cells; host or cells: HEK cells, BacMam virus transduction
T3 sequence (P43220 24-463): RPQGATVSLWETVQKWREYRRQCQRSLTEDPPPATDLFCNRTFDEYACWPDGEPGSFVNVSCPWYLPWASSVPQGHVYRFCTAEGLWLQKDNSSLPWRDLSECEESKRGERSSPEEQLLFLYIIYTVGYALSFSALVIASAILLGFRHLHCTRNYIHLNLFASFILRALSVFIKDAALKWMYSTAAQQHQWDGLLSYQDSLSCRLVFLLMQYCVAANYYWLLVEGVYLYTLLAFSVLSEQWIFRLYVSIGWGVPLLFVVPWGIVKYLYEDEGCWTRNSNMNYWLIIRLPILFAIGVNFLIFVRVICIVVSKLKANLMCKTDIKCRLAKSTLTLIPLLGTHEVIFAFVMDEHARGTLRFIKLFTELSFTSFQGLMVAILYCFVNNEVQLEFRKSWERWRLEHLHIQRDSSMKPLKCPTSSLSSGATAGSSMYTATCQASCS
Description: The functional activity of the peptides were assessed using a HTRF cAMP assay. pEC50 values are quoted.
cAMP production upon agonist stimulation of human GLP2 or GLP1 receptor was assessed utilizing HiRange cAMP kit (Cisbio). In brief, HEK cells were infected with either human GLP2 or GLP1 receptor BacMam virus for 24 hours and frozen for later use in the assay. […] Cells were prepared in the assay buffer (HBSS (Lonza) supplemented with 0.5 mM IBMX (Tocris)). After 45 min incubation at 37° C., the reaction was stopped by addition of the HTRF detection reagents in the lysis buffer provided in the kit.

[4] = molecular target: T4, mouse GLP2 receptor (Mus musculus, UniProt Q5IXF8); assay: cAMP accumulation assay (HTRF), functional agonism of mouse GLP2 receptor in HEK cells; assay type: cell-based; conditions: HEK cells transiently transfected, 45 min 37° C.; for Emax: HEK293, read-out: Mouse GLP-2R agonist cAMP Emax; for EC50: read-out: Mouse GLP-2R agonist cAMP pEC50 (converted)
T4 construct: expressed in transfected cells; host or cells: HEK cells, transient transfection with GeneJuice
T4 sequence (Q5IXF8 1-512): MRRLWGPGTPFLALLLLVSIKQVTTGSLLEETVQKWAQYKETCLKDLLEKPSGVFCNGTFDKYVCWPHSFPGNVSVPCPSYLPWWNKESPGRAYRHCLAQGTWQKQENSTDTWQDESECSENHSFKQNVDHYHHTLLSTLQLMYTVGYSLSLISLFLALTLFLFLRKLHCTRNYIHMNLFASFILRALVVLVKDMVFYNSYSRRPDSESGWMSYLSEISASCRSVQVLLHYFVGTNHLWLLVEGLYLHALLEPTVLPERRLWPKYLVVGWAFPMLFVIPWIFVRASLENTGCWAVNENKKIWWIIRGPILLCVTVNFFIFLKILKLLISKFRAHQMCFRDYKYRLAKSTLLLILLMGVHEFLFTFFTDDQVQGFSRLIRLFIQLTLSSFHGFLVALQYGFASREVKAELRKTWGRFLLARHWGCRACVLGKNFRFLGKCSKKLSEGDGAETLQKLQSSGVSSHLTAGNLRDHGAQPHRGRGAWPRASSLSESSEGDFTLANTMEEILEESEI

Row | Compound | Emax [1] | EC50 [1] | EC50 [2] | Emax [2] | Emax [3] | EC50 [3] | Emax [4] | EC50 [4]
1 | C=CCOC(=O)NCCCC[C@H](NC(=O)[C@H](C)NC(=O)[C@H](C)NC(=O)[C@H](CCCCNC(=O)OCC=C)NC(=O)[C@H](CC(C)C)NC(=O)[C@H](CC(=O)O)NC(=O)[C@H](CC(C)C)NC(=O)C(C)(C)NC(=O)[C@@H](NC(=O)[C@@H](Cc1ccccc1)NC(=O)[C@H](CCCC)NC(=O)[C@H](CCC(=O)O)NC(=O)[C@H](CC(=O)O)NC(=O)[C@H](CO)NC(=O)[C@H](Cc1ccccc1)NC(=O)[C@H](CO)NC(=O)CNC(=O)[C@H](Cc1nn[nH]n1)NC(=O)C(C)(C)C(=O)NCCc1c[nH]cn1)[C@@H](C)O)C(=O)N[C@@H](CC(=O)O)C(=O)N[C@@H](Cc1ccccc1)C(=O)N[C@H](C(=O)N[C@@H](CC(N)=O)C(=O)N[C@@H](Cc1c[nH]c2ccccc12)C(=O)N[C@@H](CC(C)C)C(=O)N[C@H](C(=O)N[C@@H](CCC(N)=O)C(=O)N[C@H](C(=O)N[C@@H](CCCCN)C(=O)N[C@H](C(=O)N[C@H](C(=O)N[C@@H](CC(=O)O)C(N)=O)[C@@H](C)O)[C@@H](C)CC)[C@@H](C)O)[C@@H](C)CC)[C@@H](C)CC [Example 15] ({Malonyl(2,2-Me2,histaminyl)}-[Ala(1H-tetrazol-5-yl)]GSFSDE[Nle][dF]T[Aib]LDLK(Alloc)AAK(Alloc)DFINWLIQTKITD-NH2) | 94.4% | 1.58 nM | 0.00794 nM | 101% | 95.1% | 5.01 nM | 99.9% | 1.58 nM
2 | C=CCOC(=O)NCCCC[C@H](NC(=O)[C@H](CC(C)C)NC(=O)[C@H](CC(=O)O)NC(=O)[C@H](CC(C)C)NC(=O)C(C)(C)NC(=O)[C@@H](NC(=O)[C@@H](Cc1ccccc1)NC(=O)[C@H](CCCC)NC(=O)[C@H](CCC(=O)O)NC(=O)[C@H](CC(=O)O)NC(=O)[C@H](CO)NC(=O)[C@H](Cc1ccccc1)NC(=O)[C@H](CO)NC(=O)CNC(=O)[C@H](Cc1nn[nH]n1)NC(=O)C(C)(C)C(=O)NCCc1c[nH]cn1)[C@@H](C)O)C(=O)N[C@@H](C)C(=O)N[C@@H](C)C(=O)N[C@@H](CCCCN)C(=O)N[C@@H](CC(=O)O)C(=O)N[C@@H](Cc1ccccc1)C(=O)N[C@H](C(=O)N[C@@H](CC(N)=O)C(=O)N[C@@H](Cc1c[nH]c2ccccc12)C(=O)N[C@@H](CC(C)C)C(=O)N[C@H](C(=O)N[C@@H](CCC(N)=O)C(=O)N[C@H](C(=O)N[C@@H](CCCCN)C(=O)N[C@H](C(=O)N[C@H](C(=O)N[C@@H](CC(=O)O)C(N)=O)[C@@H](C)O)[C@@H](C)CC)[C@@H](C)O)[C@@H](C)CC)[C@@H](C)CC [Example 17] ({Malonyl(2,2-Me2,histaminyl)}-[Ala(1H-tetrazol-5-yl)]GSFSDE[Nle][dF]T[Aib]LDLK(Alloc)AAKDFINWLIQTKITD-NH2) | 94.9% | 0.631 nM | 0.00501 nM | 101% | 93.7% | 0.794 nM | 100% | 0.794 nM
3 | C=CCOC(=O)NCCCC[C@H](NC(=O)[C@H](CC(C)C)NC(=O)[C@H](CC(=O)O)NC(=O)[C@H](CC(C)C)NC(=O)[C@@H](NC(=O)[C@@H](NC(=O)[C@@H](Cc1ccccc1)NC(=O)[C@H](CCCC)NC(=O)[C@H](CCC(=O)O)NC(=O)[C@H](CC(=O)O)NC(=O)[C@H](CO)NC(=O)[C@H](Cc1ccccc1)NC(=O)[C@H](CO)NC(=O)CNC(=O)[C@H](Cc1nn[nH]n1)NC(=O)C(C)(C)C(=O)NCCc1c[nH]cn1)[C@@H](C)O)[C@@H](C)CC)C(=O)N[C@@H](C)C(=O)N[C@@H](C)C(=O)N[C@@H](CCCCN)C(=O)N[C@@H](CC(=O)O)C(=O)N[C@@H](Cc1ccccc1)C(=O)N[C@H](C(=O)N[C@@H](CC(N)=O)C(=O)N[C@@H](Cc1c[nH]c2ccccc12)C(=O)N[C@@H](CC(C)C)C(=O)N[C@H](C(=O)N[C@@H](CCC(N)=O)C(=O)N[C@H](C(=O)N[C@@H](CCCCN)C(=O)N[C@H](C(=O)N[C@H](C(=O)NC(C)(CC(=O)O)C(N)=O)[C@@H](C)O)[C@@H](C)CC)[C@@H](C)O)[C@@H](C)CC)[C@@H](C)CC (some centres unmarked) [Example 20] ({Malonyl(2,2-Me2,histaminyl)}-[Ala(1H-tetrazol-5-yl)]GSFSDE[Nle][dF]TILDLK(Alloc)AAKDFINWLIQTKIT[ξαMeD]-NH2; C-terminus assumed) | 92.2% | – | – | 103% | 94% | – | 100% | –
